This experiment deals with T1, human APJ receptor (Homo sapiens, UniProt P35414).
T1 construct: expressed in transfected cells; host or cells: HEK293
T1 sequence (P35414 1-380): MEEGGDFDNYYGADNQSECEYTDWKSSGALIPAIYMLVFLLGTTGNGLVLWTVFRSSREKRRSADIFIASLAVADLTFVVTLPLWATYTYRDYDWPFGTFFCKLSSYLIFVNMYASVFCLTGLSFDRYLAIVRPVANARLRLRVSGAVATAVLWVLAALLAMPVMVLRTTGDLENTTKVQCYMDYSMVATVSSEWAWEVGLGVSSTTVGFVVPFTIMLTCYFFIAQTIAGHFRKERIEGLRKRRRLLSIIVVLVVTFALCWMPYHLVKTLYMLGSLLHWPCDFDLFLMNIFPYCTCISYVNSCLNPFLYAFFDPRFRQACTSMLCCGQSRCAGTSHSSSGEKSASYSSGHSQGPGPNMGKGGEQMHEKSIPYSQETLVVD
Description: Intracellular cAMP accumulation assay (APJ hcAMP, HTRF). The format is cell-based. How it is done: Intracellular cAMP Accumulation Assay
HEK293 cells stably expressing human APJ receptor were used to assess the activity of compounds. Cultured cells were detached and resuspended in the cAMP Homogeneous Time-Resolved Fluorescence (HTRF) assay buffer (Cisbio cat; #62AM4PEJ). The assay was performed in 384-well assay plates (Perkin-Elmer; cat #6008289) according to assay protocol provided by the manufacturer. Serial dilutions of a compound together with assay buffer containing […] IBMX and 2 μM forskolin were added to each well containing 5,000 cells and incubated for 30 minutes at room temperature. Subsequently, cAMP D2 reagent was added in the lysis buffer followed by the EuK antibody (Cisbio; cat #62AM4PEJ) and incubated for 60 min. The fluorescence emission ratio was measured using fluorometer. The intracellular cAMP concentrations (compound-stimulated inhibition of forskolin-mediated cAMP production) were calculated by extrapolation from a standard curve using known cAMP concentrations. The EC50 values were obtained by fitting the data to a sigmoidal concentration-response curve with variable slope. The maximal achievable inhibition of forskolin-induced cAMP levels (Ymax) for each compound was expressed as relative percentage of inhibition attained using pyroglutamated apelin-13 ((Pyr1)apelin-13) peptide, which was set to 100%.
The examples disclosed below were tested in the APJ in vitro assays described above and were found having human APJ cyclic AMP (hcAMP) activity. The EC50 value of each compound is presented at the end of the example description.
The biological activity of the exemplified compounds of this invention determined by the assay described above is shown at the end of each example.

The mark [1] stands for this setting: HEK293 cells stably expressing human APJ receptor; inhibition of forskolin-mediated cAMP production; Table 1; read-out: hAPJ cAMP EC50 Potency range.
Where [2] appears, read: hAPJ cAMP EC50 Potency range, HEK293 cells stably expressing human APJ receptor; inhibition of forskolin-mediated cAMP production; Table 1.
The mark [3] stands for this setting: read-out: hAPJ cAMP EC50 Potency range; HEK293 cells stably expressing human APJ receptor; inhibition of forskolin-mediated cAMP production; Table 1.

The structures appear in SMILES notation. Read-outs that look alike come from different tables or passages of the source.

As to `CCN(c1ccccc1)c1c(CC2CC2)nc(O)c(S(=O)(=O)c2ccc(-c3ccccc3C(=O)NC)cc2)c1O` [Example 055, 4′-((6-(cyclopropylmethyl)-5-(ethyl(phenyl)amino)-2,4-dihydroxypyridin-3-yl)sulfonyl)-N-methyl-[1,1′-biphenyl]-2-carboxamide], under setting [1], the 50% effective concentration (EC50) lay within 0.01 to 10 nM.

In the case of `CCN(c1ccccc1)c1c(-c2ccn(C)n2)nc(O)c(S(=O)(=O)c2ccc(-c3ccccc3C(=O)NC)cc2)c1O` [Example 056, 4′-((5-(ethyl(phenyl)amino)-2,4-dihydroxy-6-(1-methyl-1H-pyrazol-3-yl)pyridin-3-yl)sulfonyl)-N-methyl-[1,1′-biphenyl]-2-carboxamide], the EC50 under setting [1] was in the range of 0.01 to 10 nM. `CCCCc1nc(O)c(S(=O)(=O)c2ccc(-c3ccccc3C(N)=O)cc2)c(O)c1N1CCCc2ccccc21` [Example 057, 4′-((6-butyl-5-(3,4-dihydroquinolin-1(2H)-yl)-2,4-dihydroxypyridin-3-yl)sulfonyl)-[1,1′-biphenyl]-2-carboxamide]: the EC50 under setting [1] lay within 0.01 to 10 nM. For `CCN(c1ccccc1)c1c(-c2ccn(C)n2)nc(O)c(S(=O)(=O)c2ccc(-c3cccnc3C)cc2)c1O` [Example 058, 5-(ethyl(phenyl)amino)-6-(1-methyl-1H-pyrazol-3-yl)-3-((4-(2-methylpyridin-3-yl)phenyl)sulfonyl)pyridine-2,4-diol], the concentration giving a half-maximal response (EC50) under setting [1] lay in the range of 0.01 to 10 nM. Turning to `CCN(c1ccccc1)c1c(-c2ccn(C)n2)nc(O)c(S(=O)(=O)c2ccc(-c3ccc(F)nc3C)cc2)c1O` [Example 059, 5-(ethyl(phenyl)amino)-3-((4-(6-fluoro-2-methylpyridin-3-yl)phenyl)sulfonyl)-6-(1-methyl-1H-pyrazol-3-yl)pyridine-2,4-diol], under setting [1], the EC50 lay within 0.01 to 10 nM. For the compound `CCN(c1ccccc1)c1c(-c2ccn(C)n2)nc(O)c(S(=O)(=O)c2ccc(-c3ccccc3C(=O)N(C)C)cc2)c1O` [Example 060, 4′-((5-(ethyl(phenyl)amino)-2,4-dihydroxy-6-(1-methyl-1H-pyrazol-3-yl)pyridin-3-yl)sulfonyl)-N,N-dimethyl-[1,1′-biphenyl]-2-carboxamide], the 50% effective concentration (EC50) under setting [1] fell in the range of 0.01 to 10 nM.

Regarding `CCCCc1nc(O)c(S(=O)(=O)c2ccc(-c3ccccc3C(=O)NC)cc2)c(O)c1N1CCCc2ccccc21` [Example 061, 4′-((6-butyl-5-(3,4-dihydroquinolin-1(2H)-yl)-2,4-dihydroxypyridin-3-yl)sulfonyl)-N-methyl-[1,1′-biphenyl]-2-carboxamide], the EC50 under setting [1] lay within 0.01 to 10 nM. `CCN(c1ccccc1)c1c(CC2CC2)nc(O)c(S(=O)(=O)c2ccc(-c3ccccc3C(=O)N(C)C)cc2)c1O` [Example 062, 4′-((6-(cyclopropylmethyl)-5-(ethyl(phenyl)amino)-2,4-dihydroxypyridin-3-yl)sulfonyl)-N,N-dimethyl-[1,1′-biphenyl]-2-carboxamide]: under setting [1], the EC50 lay within 0.01 to 10 nM. In the case of `CCN(c1ccccc1)c1c(-c2ccn(C)n2)nc(O)c(S(=O)(=O)c2ccc(-c3ccnc(F)c3C)cc2)c1O` [Example 063, 5-(ethyl(phenyl)amino)-3-((4-(2-fluoro-3-methylpyridin-4-yl)phenyl)sulfonyl)-6-(1-methyl-1H-pyrazol-3-yl)pyridine-2,4-diol], the 50% effective concentration (EC50) under setting [1] lay within 0.01 to 10 nM. With `CCN(c1ccccc1)c1c(-c2ccn(C)n2)nc(O)c(S(=O)(=O)c2ccc(-c3ccncc3C)cc2)c1O` [Example 064, 5-(ethyl(phenyl)amino)-6-(1-methyl-1H-pyrazol-3-yl)-3-((4-(3-methylpyridin-4-yl)phenyl)sulfonyl)pyridine-2,4-diol], the EC50 under setting [1] lay in the range of 0.01 to 10 nM.

For the compound `CCCCc1nc(O)c(S(=O)(=O)c2ccc(-c3ccccc3C(N)=O)cc2)c(O)c1N(C)c1ccccc1` [Example 065, 4′-((6-butyl-2,4-dihydroxy-5-(methyl(phenyl)amino)pyridin-3-yl)sulfonyl)-[1,1′-biphenyl]-2-carboxamide], under setting [1], the EC50 lay in the range of 0.01 to 10 nM.

Under setting [2], `CCCCc1nc(O)c(C(=O)N2CC[C@H](c3ccccc3)C2)c(O)c1N(CC)c1ccccc1` [Example 066, (R)-(6-butyl-5-(ethyl(phenyl)amino)-2,4-dihydroxypyridin-3-yl)(3-phenylpyrrolidin-1-yl)methanone] displayed an EC50 of 10 to 100 nM. `CCCCc1nc(O)c(C(=O)N2CCC(c3ccc(Cl)cn3)C2)c(O)c1N(CC)c1ccccc1` (stereo not shown) [Example 067, (6-butyl-5-(ethyl(phenyl)amino)-2,4-dihydroxypyridin-3-yl)(3-(5-chloropyridin-2-yl)pyrrolidin-1-yl)methanone] returned an EC50 under setting [2] of 0.01 to 10 nM. With `CCCCc1nc(O)c(C(=O)N2CC[C@@H](c3ccccc3)C2)c(O)c1N(CCC)c1ccccc1` [Example 068, (S)-(6-butyl-2,4-dihydroxy-5-(phenyl(propyl)amino)pyridin-3-yl)(3-phenylpyrrolidin-1-yl)methanone], under setting [1], the EC50 was in the range of 10 to 100 nM. As for `CCCCc1nc(O)c(C(=O)N2CC[C@H](c3ccccc3)C2)c(O)c1N(CCC)c1ccccc1` [Example 069, (R)-(6-butyl-2,4-dihydroxy-5-(phenyl(propyl)amino)pyridin-3-yl)(3-phenylpyrrolidin-1-yl)methanone], the EC50 under setting [1] lay in the range of 10 to 100 nM. Turning to `CCCCc1nc(O)c(C(=O)N2CCC(c3ncc(Cl)cc3F)C2)c(O)c1N(CC)c1ccccc1` (stereo not shown) [Example 070, (6-butyl-5-(ethyl(phenyl)amino)-2,4-dihydroxypyridin-3-yl)(3-(5-chloro-3-fluoropyridin-2-yl)pyrrolidin-1-yl)methanone], the EC50 under setting [2] lay within 0.01 to 10 nM.

`CCCCc1nc(O)c(C(=O)N2CCC(c3ncc(F)cc3F)C2)c(O)c1N(CC)c1ccccc1` (stereo not shown) [Example 071, (6-butyl-5-(ethyl(phenyl)amino)-2,4-dihydroxypyridin-3-yl)(3-(3,5-difluoropyridin-2-yl)pyrrolidin-1-yl)methanone] came in with an EC50 under setting [2] of 0.01 to 10 nM. On to `CCCCc1nc(O)c(C(=O)N2CCC(c3ncc(Cl)cc3F)C2)c(O)c1N(CC)c1ccccc1` (stereo not shown) [Example 072, (6-butyl-5-(ethyl(phenyl)amino)-2,4-dihydroxypyridin-3-yl)(3-(5-chloro-3-fluoropyridin-2-yl)pyrrolidin-1-yl)methanone], for which, under setting [3], the EC50 lay in the range of 0.01 to 10 nM.

Take `CCCCc1nc(O)c(C(=O)N2CCC(c3ncc(F)cc3F)C2)c(O)c1N(CC)c1ccccc1` (stereo not shown) [Example 073, (6-butyl-5-(ethyl(phenyl)amino)-2,4-dihydroxypyridin-3-yl)(3-(3,5-difluoropyridin-2-yl)pyrrolidin-1-yl)methanone]: the concentration for a half-maximal effect (EC50) under setting [3] was in the range of 0.01 to 10 nM.

Take `CCCCc1nc(O)c(C(=O)N2CCN(Cc3cccc(Cl)c3Cl)CC2)c(O)c1N(CC)c1ccccc1` [Example 074, (6-butyl-5-(ethyl(phenyl)amino)-2,4-dihydroxypyridin-3-yl)(4-(2,3-dichlorobenzyl)piperazin-1-yl)methanone]: under setting [2], the EC50 lay in the range of 10 to 100 nM. `CCCCc1nc(O)c(C(=O)N2CCC(c3ccccc3F)C2)c(O)c1N(CC)c1ccccc1` (stereo not shown) [Example 075, (6-butyl-5-(ethyl(phenyl)amino)-2,4-dihydroxypyridin-3-yl)(3-(2-fluorophenyl)pyrrolidin-1-yl)methanone] registered a concentration for a half-maximal effect (EC50) under setting [2] of 0.01 to 10 nM. The same measure, in the same setting: the figure for `CCCCc1nc(O)c(C(=O)N2CCC(c3ccc(Cl)cn3)C2)c(O)c1N(CC)c1ccccc1` (stereo not shown) [Example 076, (6-butyl-5-(ethyl(phenyl)amino)-2,4-dihydroxypyridin-3-yl)(3-(5-chloropyridin-2-yl)pyrrolidin-1-yl)methanone] is 10 to 100 nM.

These data come from patent publication US10669258B2, “3-sulfonyl-5-aminopyridine-2,4-diol APJ agonists” (BRISTOL-MYERS SQUIBB COMPANY, priority 2016, dated 2020).
